# Measured values as given in ChEMBL document CHEMBL5725543, “Aniline derivative, pharmaceutical composition containing same, and use thereof” (2017).
# Target: Sphingosine 1-phosphate receptor 1 (Homo sapiens, UniProt P21453)
# Test: BCA Protein Assay: Inhibitory activity evaluation was performed by multi-screen (registered trademark) HTS 96-well plate (Millipore) using the cell membrane fraction stably expressing S1P1 obtained by the above operation. 25 μL of assay solution (50 mM Tris, 100 mM sodium chloride, 5 mM magnesium chloride, 1 mM EDTA, 1 mM DTT (dithiothreitol), 10 μM GDP (guanosine diphosphate) and 0.5% BSA (bovine serum albumin), pH 7.4), 25 μL of test compounds solution diluted by assay solution and 25 μL of the membrane fraction (0.2 μg protein/μL) were added to each well, and the mixture was gently shaken at room temperature: for 30 minutes. Then, 25 μL of 35S-GTP, and 25 μL of 50 nM S1P1 receptor selective agonist (1-[4-(4-phenyl-5-trifluoromethylthiophen-2-ylmethoxy)benzyl]azetidine-3-carboxylic acid, ¿J. Med. Chem.¿, 2004, vol. 47, pp. 6662-6665, compound 18) were added to each well, respectively, and it was reacted at room temperature for 60 minutes. After the reaction, a reaction solution of each well was suction-filtered. After suction filtration, ice-colded wash solution (50 mM Tris, 100 mM sodium chloride, […] and 1 mM EDTA, pH 7.4) was added to each well, and moreover filters were washed by suction filtration. This wash procedure was performed three times. A bottom of the plate containing the filters was dried at 60° C. […]
# Sphingosine 1-phosphate receptor 1, sequence (P21453 whole entry): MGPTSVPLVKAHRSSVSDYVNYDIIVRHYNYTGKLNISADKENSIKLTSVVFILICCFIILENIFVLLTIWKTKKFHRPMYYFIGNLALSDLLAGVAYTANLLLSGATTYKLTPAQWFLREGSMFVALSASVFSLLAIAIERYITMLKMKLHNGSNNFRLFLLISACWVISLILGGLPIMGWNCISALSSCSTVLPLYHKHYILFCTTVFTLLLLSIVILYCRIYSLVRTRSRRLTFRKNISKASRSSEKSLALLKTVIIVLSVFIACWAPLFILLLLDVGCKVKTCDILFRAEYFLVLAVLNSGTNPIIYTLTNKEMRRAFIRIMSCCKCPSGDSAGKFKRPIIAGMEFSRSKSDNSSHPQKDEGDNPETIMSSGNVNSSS
smiles,measurement,value
CCN(c1ccc(Cl)c(C)c1)C(CO)c1cccc(CN2CC(C(=O)O)C2)c1 (stereo unspecified),IC50,11.2 nM
